Test results: publication PMC9240354, “Pharmacokinetics, Pharmacodynamics and Antiviral Efficacy of the MEK Inhibitor Zapnometinib in Animal Models and in Humans” (Frontiers in Pharmacology, 2022)
Where two headings read alike, the source gives them in different places.

What was measured:
[1] = plasma binding; settings: stated in discussion, no data shown
[2] = tested on: MEK1/2; assay: phosphorylation of MEK and ERK in PMA-stimulated human PBMCs (Wes); settings: 50 µg/ml 1 h, then 400 nM PMA 30 min
Description: PBMCs from healthy donors were isolated, treated with zapnometinib, stimulated with Phorbol-12-Mystrat-13-Acetat (PMA) and analyzed for the reduction of MEK and ERK phosphorylation.
PBMCs of 30 ml human blood were isolated using SepMate^TM tubes (Stemcell Technologies, Vancouver, Canada) by density gradient centrifugation according to manufacturer’s instructions. The PBMCs were then cultured in the plasma and treated with 50 µg/ml zapnometinib or DMSO for 1 h at 37°C and 5% CO2. Afterwards, the PBMCs were stimulated with 400 nM PMA (Sigma-Aldrich, St. Louis, Missouri, USA) for 30 minutes at 37°C and 5% CO2. After stimulation, the cells were washed twice with PBS and centrifuged 8 minutes at 300 x g at RT. The cells were then lysed in 1x RIPA buffer and analyzed with Wes™ for phosphorylation of ERK and MEK using specific antibodies as described in the Pharmacodynamic assessment to determine level of MEK inhibition section. […]
PBMCs of healthy human volunteers were treated for 1 h with 50 µg/ml zapnometinib or DMSO as solvent control and subsequently stimulated for 30 minutes with 400 nM PMA. Cell lysates of the PBMCs were then analyzed with Wes™ for phosphorylated and total protein, and the ratio was used to calculate the phosphorylation levels. […]

[3] = clinical; settings: both, human, in vivo; for AUC(0-t): healthy volunteers, n = 8
[4] = set-up: method as in Koch-Heier et al., manuscript in preparation; settings: mice, 75 mg/kg; previously unpublished preclinical data; ref Koch-Heier et al., manuscript in preparation; cited from earlier work
[5] = Syrian hamsters
[6] = tested on: MEK; assay: MEK inhibition in PBMCs, summary regardless of species; format: in vivo, mice, hamsters, dogs, human
Description: The pharmacodynamic assessment was performed using the Wes™ (Simple Western™) system which uses capillary electrophoresis to separate, identify and quantify proteins of interest. A chemiluminescence signal for each identified protein is detected and the area under the peak is calculated, which is then used for quantification. The 0.1x Sample Buffer, 400 mM dithiothreitol (DTT) solution, 5x Fluorescence Master Mix, and the Biotinylated Ladder (ProteinSimple®, Abingdon, Oxford, United Kingdom) were prepared according to manufacturer’s instructions. For all species, PBMCs were lysed in 1x radioimmunoprecipitation assay (RIPA) buffer (containing 0.24% (w/v) tris base (Sigma-Aldrich, St. Louis, MO, United States), 0.88% (w/v) NaCl (Carl Roth GmbH, Karlsruhe, Germany), 0.2% (v/v) 500 mM EDTA (Sigma-Aldrich), 1% (v/v) Triton X-100 (Sigma-Aldrich), 0.5% (w/v) sodium deoxycholate (Sigma-Aldrich), 0.1% (w/v) sodium dodecyl sulfate (SDS) (Carl Roth), 10% (v/v) glycerol (Carl Roth), 0.05% phenylmethyl sulfonyl fluoride (PMSF) (Carl Roth), 0.01% Benzonase® Nuclease (Sigma-Aldrich), protease inhibitor cocktail (Roche, Basel, Switzerland), and phosphatase inhibitor cocktail (Roche) in H2O), further diluted with 0.1x Sample Buffer (ProteinSimple®, Abingdon, Oxford, United Kingdom) to adjust the protein concentration to 1 μg/μl. Then the 5x Fluorescence Master Mix in DTT (ProteinSimple®) was added, and the samples were denatured for 5 min at 95°C, loaded onto the assay plate and analyzed using specific antibodies. […] The anti-rabbit secondary antibody (Cat# DM-001) was also purchased from ProteinSimple® and was ready to use. Data were analyzed with Compass software for simple western (ProteinSimple®). Using the ratio of pERK to ERK of each sample compared to control (pre-dose), the level of ERK phosphorylation was calculated and then converted into the percentage level of MEK inhibition.

O=C(O)c1ccc(F)c(F)c1Nc1ccc(I)cc1Cl [zapnometinib, 2-(2-Chloro-4-Iodophenylamino)-N-3,4-Difluoro benzoic acid]
plasma binding [1]: high plasma binding
phosphorylation of MEK [2]: directly prevents the phosphorylation of MEK
half-life [3]: 1140 min
Cmax ([3]; po, 100 mg): 9000 ± 2000 ng/mL
Tmax ([3]; po, 100 mg): 2 h
half-life ([3]; po, 100 mg): 1180 ± 318 min
AUC(0-t) ([3]; po, 100 mg, AUC0-t, single oral dose 100 mg): 115 ± 10 µg·h/mL
AUC(0-t) ([3]; po, 100 mg, AUC0–24 h, single oral dose 100 mg): 84 ± 9 µg·h/mL
Cmax ([3]; po, 300 mg): 13000 ± 4000 ng/mL
Tmax ([3]; po, 300 mg): 4 h
half-life ([3]; po, 300 mg): 1190 ± 348 min
AUC(0-t) ([3]; po, 300 mg, AUC0-t, single oral dose 300 mg): 241 ± 18 µg·h/mL
AUC(0-t) ([3]; po, 300 mg, AUC0–24 h, single oral dose 300 mg): 157 ± 16 µg·h/mL
Cmax ([3]; po, 600 mg): 35000 ± 7000 ng/mL
Tmax ([3]; po, 600 mg): 4 h
half-life ([3]; po, 600 mg): 1310 ± 408 min
AUC(0-t) ([3]; po, 600 mg, AUC0-t, single oral dose 600 mg): 617 ± 51 µg·h/mL
AUC(0-t) ([3]; po, 600 mg, AUC0–24 h, single oral dose 600 mg): 411 ± 44 µg·h/mL
Cmax ([3]; po, 900 mg): 46000 ± 16000 ng/mL
Tmax ([3]; po, 900 mg): 4 h
half-life ([3]; po, 900 mg): 1420 ± 492 min
AUC(0-t) ([3]; po, 900 mg, AUC0-t, single oral dose 900 mg): 1000 µg·h/mL
AUC(0-t) ([3]; po, 900 mg, AUC0–24 h, single oral dose 900 mg): 629 ± 83 µg·h/mL
tolerability [4]: well tolerated
mean plasma concentration at 24 h ([5]; 15 mg/kg BID p.o.): 1 ± 0.2 µg/mL
plasma concentration 12 h after the first treatment ([5]; 15 mg/kg BID p.o., before second dose): 2 ± 0.1 µg/mL
mean plasma concentration at 24 h ([5]; 60 mg/kg OD p.o.): 0.2 ± 0.6 µg/mL
concentration to inhibit 50% of PBMC MEK activity ([6]; across all species): approximately 10 μg/ml
MEK inhibition in PBMCs, maximum observed ([6]; regardless of species): up to 80%
MEK inhibition maintained 24 h after dosing ([6]; regardless of species, almost all zapnometinib eliminated from plasma): up to 50%
